Results as given in ChEMBL document CHEMBL4831477, “Structure-Enabled Discovery of Novel Macrocyclic Inhibitors Targeting Glutaminase 1 Allosteric Binding Site” (J Med Chem, 2021).
In brackets after ≈: the same amount, converted by molar mass.

Assays:
[1] = system: MDA-MB-436; test: Antiproliferative activity against human MDA-MB-436 cells assessed as reduction in cell viability incubated for 72 hrs by MTT assay; type: functional, cell-based; details: MDA-MB-436, 72 h
[2] = Distribution coefficient, logD of the compound at pH 7.4 by LC-MS based shake-flask method; type: physicochemical; details: octanol/water, read-out: logD
[3] = system: HCT-116; test: Antiproliferative activity against human HCT116 cells assessed as reduction in cell viability incubated for 72 hrs by MTT assay; type: functional, cell-based; details: HCT-116, 72 h
[4] = biological target: T1, Glutaminase kidney isoform, mitochondrial (Homo sapiens) (UniProt O94925)
T1 sequence (whole entry): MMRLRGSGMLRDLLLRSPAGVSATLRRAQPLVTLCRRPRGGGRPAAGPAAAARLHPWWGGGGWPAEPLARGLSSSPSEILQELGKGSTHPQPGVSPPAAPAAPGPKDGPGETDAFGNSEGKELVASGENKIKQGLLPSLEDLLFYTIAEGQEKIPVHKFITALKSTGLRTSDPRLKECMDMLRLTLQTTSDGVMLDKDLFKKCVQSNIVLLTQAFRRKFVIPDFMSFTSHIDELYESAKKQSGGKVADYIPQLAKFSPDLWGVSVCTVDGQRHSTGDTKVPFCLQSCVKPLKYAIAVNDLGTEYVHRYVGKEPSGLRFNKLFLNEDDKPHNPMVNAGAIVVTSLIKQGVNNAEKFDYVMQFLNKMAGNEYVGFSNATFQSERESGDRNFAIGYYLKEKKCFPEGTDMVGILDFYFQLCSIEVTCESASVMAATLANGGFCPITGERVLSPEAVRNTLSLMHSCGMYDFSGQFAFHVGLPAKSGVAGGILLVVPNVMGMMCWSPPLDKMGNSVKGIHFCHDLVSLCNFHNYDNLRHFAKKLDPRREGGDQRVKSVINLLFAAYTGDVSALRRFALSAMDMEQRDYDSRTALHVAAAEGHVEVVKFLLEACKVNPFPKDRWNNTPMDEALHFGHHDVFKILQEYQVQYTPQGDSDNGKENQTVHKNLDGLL
Description: Binding affinity to human GLS1 expressed in Escherichia coli strain BL21 (DE3) assessed as change in melting temperature by SYPRO orange dye based protein thermal shift assay

[5] = Intrinsic aqueous solubility of compound at pH 7.4 by LC-MS based shake-flask method; type: physicochemical; details: read-out: Intrinsic_solubility
[6] = biological target: T2, Glutaminase kidney isoform, mitochondrial (Homo sapiens, UniProt O94925); test: Inhibition of recombinant human GLS1 expressed in Escherichia coli strain BL21 (DE3) preincubated for 10 mins before glutamine addition and measured after 60 mins by bovine liver glutamate dehydrogenase based coupled enzyme assay
T2 sequence (O94925 whole entry): T1 sequence (whole entry)

[7] = system: HCT-116; test: Inhibition of colony formation in human HCT-116 cells incubated for 14 days by crystal violet staining based assay; type: functional, cell-based; details: dose 0.1-2 µM, time 14.0 day

O=C(Cc1ccccc1)Nc1nnc(CCSCCc2nnc(NC(=O)Cc3ccccc3)s2)s1
IC50 [1]: 5080 nM | logD [2]: 2.86 | IC50 [3]: 3910 nM

O=C1CCc2cccc(c2)OCC/C=C/CCCC(=O)Nc2nnc(s2)CCCCc2ccc(nn2)N1
IC50 [1]: 6300 nM | ΔTm [4]: 11.7 °C | logD [2]: 3.08 | solubility thermodynamic [5]: 2.05 µg/mL (≈ 3.94 µM) | IC50 [6]: 372 nM | IC50 [3]: 1450 nM

O=C1Cc2cccc(c2)OC/C=C/COc2cccc(c2)CC(=O)NC2=NN=C(CCCCC3=NN=C(N1)S3)S2
IC50 [1]: 510 nM | ΔTm [4]: 16.5 °C | logD [2]: 2.9 | inhibition [7]: Dose-Dependent Effect | solubility thermodynamic [5]: 0.34 µg/mL (≈ 0.59 µM) | IC50 [6]: 41 nM | IC50 [3]: 280 nM

O=C1Cc2ccc(cc2)OC/C=C/COc2ccc(cc2)CC(=O)Nc2nnc(s2)CCCCc2nnc(s2)N1
IC50 [1]: 790 nM | ΔTm [4]: 16.1 °C | logD [2]: 2.98 | solubility thermodynamic [5]: 0.36 µg/mL (≈ 0.624 µM) | IC50 [6]: 76 nM | IC50 [3]: 420 nM

O=C1Cc2cccc(c2)OCC/C=C/CCOc2cccc(c2)CC(=O)NC2=NN=C(CCCCC3=NN=C(N1)S3)S2
IC50 [1]: 470 nM | ΔTm [4]: 15.9 °C | logD [2]: 3.16 | solubility thermodynamic [5]: 0.31 µg/mL (≈ 0.513 µM) | IC50 [6]: 47 nM | IC50 [3]: 350 nM

O=C1Cc2cccc(c2)OCCC/C=C/CCCOc2cccc(c2)CC(=O)Nc2nnc(s2)CCCCc2ccc(nn2)N1
IC50 [1]: 570 nM | ΔTm [4]: 18.3 °C | logD [2]: 3.48 | inhibition [7]: Dose-Dependent Effect | solubility thermodynamic [5]: 1.62 µg/mL (≈ 2.58 µM) | IC50 [6]: 28 nM | IC50 [3]: 190 nM

O=C1Cc2ccc(cc2)OCC/C=C/CCOc2ccc(cc2)CC(=O)Nc2nnc(s2)CCCCc2nnc(s2)N1
IC50 [1]: 1900 nM | ΔTm [4]: 13.9 °C | logD [2]: 3.52 | inhibition [7]: Dose-Dependent Effect | solubility thermodynamic [5]: 0.33 µg/mL (≈ 0.546 µM) | IC50 [6]: 80 nM | IC50 [3]: 960 nM

C=CCCOc1cccc(CC(=O)Nc2ccc(CCCCc3nnc(NC(=O)Cc4cccc(OCCC=C)c4)s3)nn2)c1
IC50 [6]: 68 nM

O=C1Cc2cccc(c2)OCCCC/C=C/CCCCOc2cccc(c2)CC(=O)NC2=NN=C(CCCCC3=NN=C(N1)S3)S2
IC50 [1]: 6490 nM | ΔTm [4]: 16.6 °C | logD [2]: 3.85 | solubility thermodynamic [5]: 0.22 µg/mL (≈ 0.333 µM) | IC50 [6]: 225 nM | IC50 [3]: 7080 nM
